One assay deals with YAP-TEAD. Briefly: Nano luciferase method to detect YAP-TEAD inhibitor activity (293T cells transfected with pGL3B-8×GTiiC-nLuc-CMV-fLuc). To be noted: Homo sapiens, HEK-293T, transfected 293T cells, 48 hours incubation, read-out: Nano Luciferas detection (IC50). It counts as cell-based. The source says:
Experimental Example 2 Nano Luciferase Method to Detect YAP-TEAD Inhibitor Activity
(1) Experimental materials and equipment: 293T cells were purchased from Nanjing Cobioer Biosciences CO., LTD. DMEM medium (high sugar, phenol red free, Bio-Channel), DMSO (dimethyl sulfoxide), Lipo6000™ transfection reagent (Beyotime), pGL3B-8×GTiiC-nLuc-CMV-fLuc plasmid, 0.25% EDTA Tripsin (trypsin solution), 1×PBS (phosphate buffer, PH7.2), 96-well white cell culture plate (PerkinElmer), Fetal Bovine Serum (FBS), 10,000 U/mL penicillin-G/streptomycin, High-speed cryo-centrifuge (EPPENDORF 5810R), 37° C. CO^2 incubator, Vi-Cell® cell counter, Envision microplate reader (PerkinElmer).
Resuscitated 293T cells were inoculated into 10 cm petri dishes and placed in a 5% CO^2 incubator at a constant temperature of 37° C. To ensure transfection efficiency, cells in the logarithmic phase (cell density of about 50%-70%) should be used.
One day before transfection, cells in logarithmic phase were digested with Trypsin-EDTA, the reaction was terminated by adding medium, and the cell suspension was made by blowing and mixing with a pipette.
The cell concentration was determined using Vi-cell and diluted to a suspension of 5*10^5 cells per milliliter. Once the cell suspension was prepared, it was gently mixed and 10 ml of liquid was added to a 10 cm petri dish. […] The cells were incubated in a 5% CO^2 incubator at 37° C. for 1 day.
Take two clean and sterile centrifuge tubes, added 750 μL of opti-MEM Medium without antibiotics and serum respectively, then added […] of plasmid (pGL3B-8×GTiiC-nLuc-CMV-fLuc) to one of the tubes and gently blown with a pipette for mixing; the other tube was added with Lipo6000 transfection reagent and gently blown with a pipette for mixing. After standing at room temperature for 5 minutes, the culture medium containing DNA was gently added to the culture medium containing Lipo6000 transfection reagent, mixed by gently inverting the centrifuge tube, and stood at room temperature for 5 minutes.
The above mixture was added evenly dropwise to a 10-cm petri dish and replaced with fresh complete medium after 6 h of incubation.
After 1 day of transfection, Trypsin EDTA was used to digest the cells, medium was added to terminate the reaction, and a cell suspension was made by blowing and mixing with a pipette.
Cell concentration was determined using Vi-cell, and diluted to a suspension of 20,000 cells per milliliter.
After the cell suspension was prepared, it was gently mixed and 100 μL was added to each well in a 96-well plate so that the density of cells to be measured was 2000 per well.
The inoculated cell culture plates were incubated in an incubator, and the compounds in concentration gradients were added after about 24 hours.
The 10 mM compound reservoir solution was diluted to 50 μM with culture medium, and 50 μM compound solution was added sequentially to the third column of the deep-well plate, and 216 μL of culture medium containing 0.5% DMSO to the fourth to eleventh columns.
Gradient dilution: 100 μL of solution was pipetted from the third column and added to the fourth column, after mixing; another 100 μL of solution was pipetted from the fourth column and added to the fifth column, and the operation was repeated until the eleventh column.
Using a multichannel pipette, 25 μL of compound solution was pipetted from the deep-well plate and added to the 96-well culture plate, and each compound was repeated four times on the 96-well plate. A concentration gradient with a maximum concentration of 10,000 nM, 1:3.16, was eventually formed on the 96-well plate.
The 96-well plate was incubated in a 5% CO^2 incubator at a constant temperature of 37° C. for 48 hours, then removed and equilibrated at room temperature for 10 minutes.
100 μL of detection reagent was added to each well and placed on a horizontal shaker at low speed for 10 minutes to fully lyse the cells. […]

Assay [1] concerns Human pleural mesothelioma cells NCI-H226. The assay can be described thus: Proliferation inhibition assay of human pleural mesothelioma cells NCI-H226 (CCK8). The following applies: 72 h, 3 days incubation. It counts as cell-based. The source says:
Experimental Example 1 Cell Anti-Proliferation Test
Proliferation Inhibition Assay of Human Pleural Mesothelioma Cells NCI-H226 by YAP-TEAD Inhibitor Compounds
Experimental materials and equipment: Human pleural mesothelioma cells NCI-H226 were purchased from Nanjing Cobioer Biosciences CO., LTD. RPMI-1640 medium (Bio-Channel), DMSO (dimethyl sulfoxide), CCK8 (WST-8) cell analysis kit (Beyotime), 0.25% EDTA-Tripsin (trypsin solution), 1×PBS (phosphate buffer, PH7.2), 96-well plate (Corning), fetal bovine serum (FBS), 10,000 U/mL penicillin-G/streptomycin, high-speed cryo-centrifuge (EPPENDORF 5810R), enzyme-linked immunoassay (Tecan Spark).
• A) Tumor cells were cultured in RPMI-1640 (containing 10% FBS and 100 U/mL penicillin-G/streptomycin) at 37° C., 5% CO^2 and saturated humidity until 80-90% density. • B) Removed the culture medium from 10 cm Petri dishes; • C) Rinsed the cells once with 10 ml 1×PBS; • D) Added 4 ml 0.25% EDTA-Tripsin into 37° C., 5% CO^2 incubator for trypsin digestion for 5 minutes, transferred to 15 ml centrifuge tube, centrifuged at 200 g for 5 minutes, discarded the supernatant to get cell precipitate; • E) Resuspend with 4 ml DMEM medium, count and adjust to 10,000 cells/ml. • F) Added cell suspension to 96-well plate with 100 μL per well volume and incubate overnight at 37° C., 5% CO^2 incubator.
• A) Preparation of gradient dilution solution of tested compounds: the test compounds were configured into 1 mM reservoir solution. Then 1.5 μl of the reservoir solution was dissolved in 1.5 ml of DMSO-free culture solution, and then a 3-fold serial gradient dilution was performed with 0.1% DMSO culture solution for a total of 9 concentrations, and the concentrations of the compounds after dilution were as follows: • 333.33 nM, 111.11 nM, 37.03 nM, 12.35 nM, 4.15 nM, 1.37 nM, 0.46 nM, 0.15 nM • B) After thorough mixing, 100 μL of culture compound solution was taken separately to replace the culture solution in the cell culture plate, with 4 replicate wells for each concentration; • C) The cells were transferred to the incubator and incubated for 3 days.
• A) Removed the cell culture plate and added 10 μl of CCK-8 (WST-8) solution per well in the biosafety cabinet. • B) Placed the cell culture plate back into the incubator and continued incubation for 3 hours. • C) Determined the absorbance value by selecting 450 nm on a TECAN enzyme-linked immunoassay detector.
The cell viability (% Cell Viability) was calculated using the following formula.
[formula] • A (dosing): absorbance of wells with cells, CCK8 solution and drug solution • A (blank): absorbance of wells with medium and CCK8 solution but no cells • A (0 dosing): absorbance of wells with cells, CCK8 solution and no drug solution • Cell viability: Cell proliferation viability or cytotoxicity viability IC50 values were obtained by curve fitting with GraphPad Prism 8 software.

[2] abbreviates: reference compounds of WO2009081259A1.

SMILES strings stand for the structures. Read-outs that look alike come from different tables or passages of the source.

For orientation: IC50 means the concentration that gives 50% inhibition.

Regarding `C=CC(=O)N1CCC(c2ccc(C(F)(F)F)nc2Nc2ccc(C(F)(F)F)cc2)CC1` [Compound T45], the IC50 was 0.1 to 1 µM in the assay with YAP-TEAD and 1 to 5 µM in assay [1].

`C=CC(=O)N1CCC(c2cc(C(F)(F)F)cnc2Nc2ccc(C(F)(F)F)cc2)CC1` [Compound T47]: the IC50 (in the assay on YAP-TEAD; in assay [1]) was 0.1 to 1 µM each time.

In the case of `C=C(C)C(=O)N1CCC(c2cccnc2Nc2ccc(C(F)(F)F)cc2)CC1` [Compound T48], the IC50 (in the assay with YAP-TEAD; in assay [1]) was 1 to 5 µM throughout.

Take `C#CC(=O)N1CCC(c2cccnc2Nc2ccc(C(F)(F)F)cc2)CC1` [Compound T49]: the IC50 is at most 0.1 µM in the assay with YAP-TEAD and 1 to 5 µM in assay [1].

In the case of `CC#CC(=O)N1CCC(c2cccnc2Nc2ccc(C(F)(F)F)cc2)CC1` [Compound T50], the IC50 (in the assay with YAP-TEAD; in assay [1]) was 1 to 5 µM each time.

As to `C=C(F)C(=O)N1CCC(c2cccnc2Nc2ccc(C(F)(F)F)cc2)CC1` [Compound T51], the IC50 (in the assay with YAP-TEAD; in assay [1]) was 0.1 to 1 µM throughout.

Consider `CC/C=C/C(=O)N1CCC(c2cccnc2Nc2ccc(C(F)(F)F)cc2)CC1` [Compound T52], for which the figures for the 50% inhibitory concentration (IC50) (in the assay with YAP-TEAD; in assay [1]) were 0.1 to 1 µM and 1 to 5 µM, respectively.

For the molecule `C/C=C/C(=O)N1CCC(c2cccnc2Nc2ccc(C(F)(F)F)cc2)CC1` [Compound T53], the results for the IC50 (in the assay on YAP-TEAD; in assay [1]) were 0.1 to 1 µM and 1 to 5 µM, respectively.

As to `C=CC(=O)N1CCC(c2cc(-c3ccn(C)n3)cnc2Nc2ccc(C(F)(F)F)cc2)CC1` [Compound T54], the values for the IC50 (in the assay on YAP-TEAD; in assay [1]) were at most 0.1 µM and 0.1 to 1 µM, respectively.

In the case of `C=CC(=O)N1CCC(c2cc(-c3cn[nH]c3)cnc2Nc2ccc(C(F)(F)F)cc2)CC1` [Compound T55], the IC50 (in the assay on YAP-TEAD; in assay [1]) was 0.1 to 1 µM throughout.

On to `C=CC(=O)N1CCC(c2cc(-c3ccccc3)cnc2Nc2ccc(C(F)(F)F)cc2)CC1` [Compound T56], for which the IC50 (with YAP-TEAD; in assay [1]) was at most 0.1 µM each time.

On to `C=CC(=O)N1CC2(C1)CN(c1nccnc1Nc1ccc(C(F)(F)F)cc1)C2` [Compound T57], for which the IC50 (with YAP-TEAD; in assay [1]) was at most 0.1 µM throughout.

Regarding `C=CC(=O)N1CCC(c2cc(-c3ccnn3C)cnc2Nc2ccc(C(F)(F)F)cc2)CC1` [Compound T60], the IC50 in the assay on YAP-TEAD fell in the range of 0.1 to 1 µM; in assay [1], 1 to 5 µM.

Turning to `C=CC(=O)N1CCC(c2cc(-c3cn(C)cn3)cnc2Nc2ccc(C(F)(F)F)cc2)CC1` [Compound T62], the figures for the IC50 (with YAP-TEAD; in assay [1]) were at most 0.1 µM and 0.1 to 1 µM, respectively.

Take `C=CC(=O)N1CCC(c2cccnc2N(C)c2ccc(C(F)(F)F)cc2)CC1` [Compound T63]: the IC50 (in the assay with YAP-TEAD; in assay [1]) was 0.1 to 1 µM throughout.

For `C=CC(=O)N1CCC(c2ccccc2Nc2ccc(C(F)(F)F)cc2)CC1` [Compound T64], the half-maximal inhibitory concentration (IC50) (in the assay with YAP-TEAD; in assay [1]) was at most 0.1 µM in each case.

Turning to `C=CC(=O)N1CCC(c2cc3ccccc3nc2Nc2ccc(C(F)(F)F)cc2)CC1` [Compound T65], the IC50 (in the assay with YAP-TEAD; in assay [1]) was 0.1 to 1 µM in each case.

Regarding `C=CC(=O)N1CCC(c2cc(OC)cnc2Oc2ccc(C(F)(F)F)cc2)CC1` [Compound T73], the IC50 (in the assay on YAP-TEAD; in assay [1]) was 0.1 to 1 µM each time.

As to `C=CC(=O)N1CCC(c2cc(C#N)cnc2Oc2ccc(C(F)(F)F)cc2)CC1` [Compound T74], the IC50 (in the assay with YAP-TEAD; in assay [1]) was 0.1 to 1 µM in each case.

Turning to `C=CC(=O)N1CCC(c2cccnc2Oc2ccc(C(F)(F)F)cc2)C(F)(F)C1` (centres unmarked) [Compound T77], the IC50 (in the assay on YAP-TEAD; in assay [1]) was at most 0.1 µM each time.

`C=CC(=O)N1C(C)CC(c2cccnc2Oc2ccc(C(F)(F)F)cc2)CC1C` (centres unmarked) [Compound T80]: the half-maximal inhibitory concentration (IC50) (with YAP-TEAD; in assay [1]) was at most 0.1 µM in each case.

With `C=C(F)C(=O)N1CCC(c2cccnc2Oc2ccc(C(F)(F)F)cc2)C(F)(F)C1` (centres unmarked) [Compound T81], the IC50 (in the assay with YAP-TEAD; in assay [1]) was 0.1 to 1 µM throughout.

Consider `C=CC(=O)N1CCC(c2nc(C(F)(F)F)cnc2Nc2ccc(C(F)(F)F)cc2)CC1` [Compound T83], for which the half-maximal inhibitory concentration (IC50) (with YAP-TEAD; in assay [1]) was at most 0.1 µM throughout.

Turning to `C=CC(=O)N1CCC(c2nc(C)c(C)nc2Nc2ccc(C(F)(F)F)cc2)CC1` [Compound T93], the IC50 (with YAP-TEAD; in assay [1]) was 0.1 to 1 µM throughout.

Consider `C=CC(=O)N1CCC(c2cc(-c3ccccn3)cnc2Nc2ccc(C(F)(F)F)cc2)CC1` [Compound T95], for which the IC50 with YAP-TEAD lay within 0.1 to 1 µM; in assay [1], 1 to 5 µM.

As to `C=CC(=O)N1CCC(c2cc(-c3cccnc3)cnc2Nc2ccc(C(F)(F)F)cc2)CC1` [Compound T96], the figures for the IC50 (in the assay with YAP-TEAD; in assay [1]) were 0.1 to 1 µM and 1 to 5 µM, respectively.

Regarding `C=CC(=O)N1CCC(c2cc(-c3ccncc3)cnc2Nc2ccc(C(F)(F)F)cc2)CC1` [Compound T97], the IC50 in the assay on YAP-TEAD lay in the range of 0.1 to 1 µM; in assay [1], 1 to 5 µM.

On to `C=CC(=O)N1CCC(c2cc(-c3ccsc3)cnc2Nc2ccc(C(F)(F)F)cc2)CC1` [Compound T98], for which the figures for the IC50 (in the assay with YAP-TEAD; in assay [1]) were 0.1 to 1 µM and 1 to 5 µM, respectively.

As for `C=CC(=O)N1CCC(c2cc(-c3cccs3)cnc2Nc2ccc(C(F)(F)F)cc2)CC1` [Compound T99], the IC50 in the assay with YAP-TEAD is 0.1 to 1 µM; in assay [1], 1 to 5 µM.

On to `Cc1cnc(Nc2ccc(C(F)(F)F)cc2)c(C2CCNCC2)c1` [Reference compound 1, reference compound], for which the IC50 (in the assay with YAP-TEAD (setting [2]); in assay [1] (setting [2])) was over 5 µM each time.

In the case of `Cc1ccc(C2CCNCC2)c(Nc2ccc(C(F)(F)F)cc2)n1` [Reference compound 2, reference compound], the IC50 (in the assay on YAP-TEAD (setting [2]); in assay [1] (setting [2])) was over 5 µM each time.

The values above are taken from patent publication US20260152480A1, “POLYCYCLIC COMPOUND AND USE THEREOF” (TYK MEDICINES , INC., priority 2022, published 2026).
